Data set [1] relates to parental and drug-resistant human TNBC cells. To be noted: human, 12 h. How it is done: Control cells were treated with 0.1% DMSO in culture medium.
In data set [2] the test system is MDA-MB-468 TNBC cells, wild type. In words: MTT viability assay, parental MDA-MB-468. It counts as cell-based, human. To be noted: for inhibition of viability compared with CFM-4: 20 μM, 24 h, FIG. 3A.
Description: (§2) In vitro inhibition of cell growth was assessed by MTT (3-[4, 5-dimethyltiazol-2-yl]-2.5-diphenyl tetrazolium bromide) reagent. Cells (5×10^3) were seeded in a 96-well culture plate and subsequently treated with respective agents at different concentrations as mentioned. Control cells were treated with 0.1% DMSO in culture medium. After treatment, the cells were incubated with 1 mg/ml of MTT reagent at 37° C. for 2-4 hours and then MTT was removed and 50 μL of DMSO was added, followed by colorimetric analysis using a multi-label plate reader at 560 nm (Victor3; PerkinElmer, Wellesley, Mass., USA).
The next data set relates to TNBC and NSCLC cells. To be noted: cited from earlier work.
Data set [3] relates to 4T1 TNBC cells, wild type. In words: MTT viability assay, parental 4T1. The data set is classed as cell-based, mouse. To be noted: FIG. 10; single agent.
Description: as §2
Data set [4] deals with Adriamycin-resistant (ADR-R) MDA-MB-468 sublines. In words: MTT viability assay, ADR-resistant MDA-MB-468 sublines. The data set is classed as cell-based, human. To be noted: ADR-resistant MDA-MB-468 subline 1; FIG. 5E. Here is the method: (§1) Human TNBC MDA-MB-468 and MDA-MB-231, and mouse TNBC 4T1 cells were cultured in the chronic presence (>10 months) of Doxorubicin. The parental, wild-type cells were initially treated with 200 nM Doxorubicin for 2-3 weeks, followed by escalation to 400 nM, 1 μM, and 2 μM doses over a period of 3-4 weeks for each dose till resistance developed and the cells became well adapted to growth in […] of Doxorubicin for their routine culture. In the case of Cisplatin however, the human TNBC MDA-MB-468 and MDA-MB-231 were initially cultured in continuous presence of 1 μM Cisplatin for 3-4 weeks, and the dose was escalated to 1.5 μM and 3 μM over periods of 3-4 weeks for each dose till resistance developed and cells became adapted to routine culture in 3 μM dose. Subsequent, routine maintenance of the resistant cells in the presence of the respective drug was continued and multiple, resistant sublines for each of the TNBC cells were isolated and characterized for their growth inhibitory (GI)50 dose of respective therapeutic by the MTT-based viability assays as below.
A general note: Tetrazolium dyes change colour on reduction, which living cells bring about.

Data set [5] concerns MDA-MB-231 TNBC cells, wild type. In words: MTT viability assay, parental MDA-MB-231. It counts as cell-based, human.
Description: as §2
Data set [6] concerns Src, MET, and STAT3 kinases in TNBC cells. In words: Western blot, oncogenic tyrosine kinases. It counts as cell-based. To be noted: parental and drug-resistant human and murine TNBC cells. (A western blot detects proteins with antibodies after separation by electrophoresis.)
Description: For protein expression analysis, Western blot (WB) experiments were performed according to the standard procedures. The cells were either untreated or treated with various agents either alone or in combinations as indicated. Following treatment durations, the cells were lysed in cell lysis (10×) buffer (#9803; cell signaling) containing 0.1% of protease and phosphatase inhibitor cocktail (Sigma) for 20 min at 4° C. The lysates were centrifuged at 14,000 rpm at 4° C. for 15-20 min to remove debris. Protein concentrations of whole cell lysates were determined using the Protein Assay Kit. Supernatant proteins, 50-100 μg from each sample, were separated by SDS-polyacrylamide gel electrophoresis (SDS-PAGE) and transferred to polyvinylidene difluoride (PVDF) membrane (Bio-rad, Hercules, Calif.) by standard procedures. […] The antibody-bound proteins were visualized by treatment with the chemiluminescence detection reagent according to manufacturer's instructions, followed by exposure to X-ray film (Denville Scientific Inc.). The same membranes were re-probed with the anti-β-actin or anti-α-tubulin antibody, which was used as an internal control for protein loading.
A further data set relates to HUVECs. In words: in vitro tubule formation (angiogenesis) assay. It counts as cell-based, human. To be noted: 12 hours; FIG. 11A. How it is done: The growth of tubules was monitored over a period of 12 hours. The cells growth in the scratch assay was recorded by photography. Representative photomicrographs of control and treated cells are presented.
It was next investigated whether CFM-4.16 inhibited TNBC cell migration and growth as colonies in soft agar and 3-dimensional cultures in vitro. In addition, an in vitro tubule formation assay was conducted to determine anti-angiogenic properties of CFM-4.16. […] Moreover, treatments with CFM-4 or CFM-4.16 prevented the parental as well as drug (ADR- or cisplatin-) resistant TNBC sublines and the parental and Herceptin-resistant, Her-2-positive SKBR-3 cells from growing in the areas of wound caused by a scratch (FIGS. 11B, 11C, 12A, 12B, 13A, and 13B).

Data set [7] concerns parental and drug-resistant TNBC and SKBR-3 cells. In words: scratch/wound healing cell migration assay. To be noted: FIGS. 11B, 11C, 12A, 12B, 13A, 13B. It counts as cell-based. How it is done:
The TNBC cells migration in the absence or presence of CFMs was measured by the “scratch/wound healing” assay. Cells were seeded in a 6-well plate (˜10,000 cells/well), and when attached, a scratch was created in the cell monolayer using sterile pipette tip. The cells were then allowed to continue growing in the absence (Control) or presence of noted dose of each of the agents for indicated time periods. The cells were photographed at the beginning and at regular intervals during the treatment period, and the images from control cells were compared with the treated cells to determine the migration of the cells essentially as described before [Liang C C, Park A Y, Guan J L In vitro scratch assay: a convenient and inexpensive method for analysis of cell migration in vitro. Nat Protoc. 2007; 2:329-33]. The photomicrographs of the cells were recorded under different magnifications utilizing Zeiss microscope with attached 35 mm camera.

Data set [8] has the same test system. In words: soft-agar clonogenic assay. To be noted: 10 μM; FIGS. 11D, 12C, 12D, 13C. It counts as cell-based. How it is done:
A soft-agar sandwich assay was performed. Cells were sandwiched between 0.6% and 0.3% agarose in DMEM medium containing 5% FBS in a six-well chamber (500 cells/chamber), and treated with buffer (Control), or respective agent for noted time and dose at 37° C. humidified CO2 incubator. The colonies from multiple random fields were counted, compared to control and photographed essentially as described before [Jamal S, Cheryan V T, Muthu M, Munie S, Levi E, Ashour A E, Pass H I, Wali A, Singh M, Rishi A K. CARP-1 functional mimetics are a novel class of small molecule inhibitors of malignant pleural mesothelioma cells. PLos One. 2014; 9:e891; Ashour A E, Jamal S, Cheryan V T, Muthu M, Zoheir K M A, Alafeefy A M, Abd-allah A R, Levi E, Tarca A L, Polin L A, Rishi A K. CARP-1 functional mimetics: A novel class of small molecule inhibitors of medulloblastoma cell growth. PLoS One. 2013; 8:e66733; Zhang L, Levi E, Majumder P, Yu Y, Aboukameel A, Du J, Xu H, Mohammad R M, Hatfield J S, Wali A, Adsay V, Majumdar A P N, Rishi A K. Transactivator of transcription tagged cell cycle and apoptosis regulatory protein-1 peptides suppress growth of human breast cancer cells in vitro and in vivo. Mol Cancer Ther. 2007; 6:1661-1672].

A further data set is described as follows: solubility observations. The data set is classed as physicochemical.
Data set [9] concerns TNBC and non-small cell lung cancer cell-derived xenografts. To be noted: SCID mice; cited from earlier work.
The test system of data set [10] is Cisplatin-resistant (Cis-R) MDA-MB-468 sublines. In words: MTT viability assay, Cisplatin-resistant MDA-MB-468 sublines. The data set is classed as cell-based, human. How it is done:
as §1

For data set [11], the system named is Cisplatin-resistant (Cis-R) MDA-MB-231 sublines. In words: MTT viability assay, Cisplatin-resistant MDA-MB-231 sublines. The data set is classed as cell-based, human. Here is the method:
as §1

The test system of a further data set is TNBC cells. In words: MTT viability assay, parental TNBC cells (lines not singled out). The data set is classed as cell-based.
Data set [12] has as its system HeLa cervical cancer cells. In words: MTT viability assay, HeLa. It counts as cell-based. To be noted: 20 μM; 24 h; FIG. 3A. From the text: The current inventors' previous studies have indicated cancer cell growth inhibitory properties of CFMs in particular CFM-4 and CFM-5 [Puliyappadamba et al.]. […] J. Biomed. Nanotechnol. 2015; 11:1608-1627]. […] J. Biomed. Nanotechnol. 2015; 11:1608-1627]. On the basis of these findings, it was speculated that solubility and/or potency of the CFM-4 scaffold could be improved for its utility as a novel anti-TNBC molecule. To address this possibility, twelve (12) additional analogs of CFM-4 (Table 2) were synthesized using medicinal chemistry based structure activity relationship (SAR) studies. Each of the analog was suspended in DMSO, and their potency was evaluated in cell culture studies utilizing HeLa cervical cancer, MDA-MB-468 TNBC, and H2461 malignant pleural mesothelioma (MPM) cells by MTT based assays. […] Moreover, a 10 μM dose of CFM-4 inhibited MDA-MB-231 and MDA-MB-468 viabilities by ˜30% and 45%, respectively.

“Also recorded” adds a separate entry of the source. Read-outs that look alike come from different tables or passages of the source.

For `O=C1NC(=O)[C@@H](c2cn3c4c(cccc24)CCC3)[C@@H]1c1c[nH]c2ccccc12` [Tivatinib], the “loss of viability, single agent” value in [1] is reported as 20-40%.
As for `O=C1N(Cc2ccc3ccccc3c2)c2ccccc2C12NN=C(c1ccccc1)S2` (stereo not shown) [CFM-4.8], in [2], the “inhibition of viability compared with CFM-4” value is reported as “greater inhibition of viability”.
Same read-out and setting: the result for `COc1ccc2c(c1)C1(NN=C(c3ccccc3)S1)C(=O)N2Cc1ccccc1Cl` (stereo not shown) [CFM-4.11] reads “greater inhibition of viability”.
In the case of `O=C1N(Cc2cccc3ccccc23)c2ccccc2C12NN=C(c1ccccc1)S2` (stereo not shown) [CFM-4.6], the “growth of TNBC and NSCLC cells” value in the data set with TNBC and NSCLC cells was “inhibited growth”.
For `Cc1nc(Nc2ncc(C(=O)Nc3c(C)cccc3Cl)s2)cc(N2CCN(CCO)CC2)n1` [Dasatinib], in data set [3], the “reduction / loss of viability” value was around 60%. In addition, in data set [1], the “loss of viability, single agent” value is given as 20-40%.
Take `O=C1N(Cc2ccccc2Cl)c2ccccc2C12NN=C(c1ccccc1)S2` (stereo not shown) [CFM-4]: the “inhibition / loss of cell viability” value in [2] (10 μM dose) is listed as around 45%; in data set [5] (10 μM dose), around 30%. Further, the “effect of siRNA-mediated depletion of CARP-1 on growth inhibition by the compound” value in data set [4] was “interfered with growth inhibition”. Moreover, the “activation and/or expression of MET and Src tyrosine kinases” value in data set [6] is listed as “reduced activation and/or expression”. Further, the “tubule formation by HUVECs compared with untreated control” value in the data set with HUVECs is recorded as “disruption of tubule formation”. The “growth of cells in the areas of wound caused by a scratch” value in data set [7] is “prevented”. In addition, the “colonies formed in soft agar” value in [8] is “significant reduction in size and number of colonies”. For the same compound, in “solubility observations”, the aqueous solubility entry is reported as “poor aqueous solubility”. Moreover, the “xenograft growth inhibition / T/C, intravenous DMSO+cremophor preparation” value in data set [9] is “failed to inhibit growth; also recorded: lack therapeutic T/C values”. Moreover, the “growth of TNBC and NSCLC cells” value in the data set with TNBC and NSCLC cells is recorded as “inhibited growth”.
Consider `N.N.[Cl][Pt][Cl]` [Cisplatin], for which the GI50 in data set [2] (72 h, Wild type) was around 1.65 µM; in data set [10] (72 h, Cis-R Clone 1-2, read-out: GI50) it was around 6.6 µM; in [10] (72 h, Cis-R Clone 3, read-out: GI50), around 12 µM; in data set [10] (72 h, Cis-R Clones 4-6, read-out: GI50), around 15 µM; in data set [10] (read-out: GI50 dose, Cisplatin-resistant MDA-MB-468 sublines) it was 6 to 15 µM; in data set [5] (72 h, Wild type), around 1.65 µM. Moreover, the GI50 in data set [11] (72 h, Cis-R Clones 1-6, read-out: GI50) is at least 150 µM; in data set [11] (read-out: GI50 dose, Cisplatin-resistant MDA-MB-231 sublines) it was at least 150 µM; with TNBC cells (72 h treatment period, read-out: GI50 doses, both the parental TNBC cell lines), around 1.65 µM; with TNBC cells (parental cells, read-out: GI50 dose, parental cells), 1.65 µM. Besides, the “GI50 dose higher than wild-type, parental cells” value in [10] (cisplatin-resistant MDA-MB-468 vs parental) was 4-9 fold. Besides, in data set [11] (cisplatin-resistant MDA-MB-231 vs parental), the “GI50 dose higher than wild-type, parental counterparts” value is at least 90 fold.
`COc1cccc(C2=NNC3(S2)C(=O)N(Cc2ccccc2Cl)c2ccccc23)c1` (stereo not shown) [CFM-4.17]: the “inhibition of viability compared with CFM-4” value in data set [2] and in [12] was “greater inhibition of viability” throughout. In addition, the “activity relative to parent compound CFM-4 or other analogs” value in the data set with TNBC cells (SAR screen of twelve analogs) is “superior”.

What is called GI50 is the concentration giving 50% growth inhibition.

The record behind these values is patent publication US10220025B1, “Self-emulsifying formulation of CARP-1 functional mimetics” (Florida A&M University, priority 2016, dated 2019).
